Like-named read-outs stand apart in the source and are kept apart here.
Experiments:
ECG interval = conditions: rats infused with the antidepressant; cited from earlier work
ADHD [1] = conditions: cited from earlier work
ADHD [2] = assay: Two large well-controlled studies of atomoxetine, CAARS scores; format: in vivo, human; conditions: overall
Text: In the second study, these improvements were 30.1% vs. 19.6%, respectively. Overall these two studies have indicated a placebo response of about 20% and difference between active and placebo of about 10%. Moreover, atomoxetine is not a stimulant, a point that provides an effective marketing tool for this drug.

[3] = desipramine treatment; cited from earlier work
[4] = tested on: ADD (as defined in DSM III); conditions: 31 patients treated with 4.6 mg/kg, children and adolescents; cited from earlier work
[5] = fatal poisoning / overdose; cited from earlier work
hyperactivity (ADHD) = conditions: doses as low as 75 mg/day; cited from earlier work
[6] = toxic levels similar to that found in the SSRI's
[7] = tested on: serotonin synthesis in the brain; assay: Serotonin synthesis in the brain
[8] = tested on: noradrenaline reuptake versus serotonin (5HT) reuptake; assay: NA:5HT relative potencies based on Ki data (Bolden-Watson and Richelson); format: biochemical; conditions: basis not stated
Text: The selectivity a drug for various receptors may be compared by use of comparative Ki's and not comparative IC 50 values. (Bolden-Watson, C and Richelson, E., Life Sci, (52), 1993, 1023-1029), which is hereby incorporated by reference.

Sedation = conditions: in vivo
ADHD [9] = assay: Example 2: lofepramine versus placebo in adult patients with ADHD (CAARS); format: in vivo, human; conditions: 20 adult patients, oral 140 to 280 mg/day, 3 months
Method: A study was carried out to access the efficacy of lofepramine compared to placebo in 20 adult patients with ADHD at a single study centre. Active treatment was for 3 months. Patients with DSM-IV diagnosis of ADHD were recruited. Patients were assessed using the patient-rated Connors Adult ADH Rating Scales (CAARS). Initially, there was a single blind placebo period between day 0 and week 3, and patients who responded to placebo were withdrawn. Oral administration of lofepramine (140 mg/day) was commenced from week 3 onwards. Patients showing little response to this dose and tolerable side effects were titrated upwards to 210 mg/day and then to 280 mg/day.

dopamine D2 receptor = dopamine D2 receptor (Homo sapiens, UniProt P14416); assay: Activity at the dopamine D2 receptor
dopamine D2 receptor, sequence (P14416 whole entry, species assumed): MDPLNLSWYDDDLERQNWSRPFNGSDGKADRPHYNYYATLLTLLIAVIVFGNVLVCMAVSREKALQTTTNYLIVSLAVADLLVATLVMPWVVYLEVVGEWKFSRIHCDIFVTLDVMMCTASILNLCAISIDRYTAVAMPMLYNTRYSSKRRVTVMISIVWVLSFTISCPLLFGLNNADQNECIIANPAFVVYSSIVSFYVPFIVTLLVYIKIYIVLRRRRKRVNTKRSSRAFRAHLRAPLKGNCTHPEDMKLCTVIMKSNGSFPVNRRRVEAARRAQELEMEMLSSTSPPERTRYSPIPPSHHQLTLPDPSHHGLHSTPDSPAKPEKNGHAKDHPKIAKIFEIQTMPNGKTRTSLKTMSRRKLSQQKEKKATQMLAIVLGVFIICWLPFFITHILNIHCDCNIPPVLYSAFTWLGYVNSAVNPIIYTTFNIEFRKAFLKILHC

Chronic Fatigue Syndrome = assay: Example 3: lofepramine in Chronic Fatigue Syndrome patients, cross-over design; format: in vivo, human; conditions: 44 patients, doses up to 210 mg/day over 26 weeks
Method: Forty-four patients meeting the criteria for Chronic Fatigue Syndrome were recruited in a cross-over design. […] Patients were administered lofepramine at doses up to 210 mg/day over the 26 weeks of the study. Patients were assessed using the FibroFatigue Scale (interview scale) and the CDR battery of cognitive tests (computer based assessment of cognition). Other assessments included HADS and Clinical Global Improvement (CGI). Four CDR assessments and 9 Fibrofatigue assessments were carried out.

[10] = tested on: Hypothalamic-Pituitary-Adrenal axis; assay: HPA axis activity in CFS; format: in vivo, human; conditions: along with symptomatic relief
Text: While not being bound by any one mechanisms of action, previous work by one of the co-inventors here, has supported the evidence that there is Hypothalamic-Pituitary-Adrenal axis under activity in CFS patients. (Scott […] and […]; Acta Psychiatr Scand 1998 June 97: 450-7).

DSM-IV ADHD = assay: Example 1: case reports of ADHD patients on lofepramine; format: in vivo, human; conditions: for behaviour: child; for general behaviour and concentration: person
Method: Patient is a person with a diagnosis of DSM-IV ADHD. Their education was severely impacted by an inability to sustain attention for any length of time and they were also very disruptive in class. Their inability to sustain attention was causing difficulty at work. They were referred by their primary care physician. They were commenced on lofepramine 70 mg twice daily. […] The dose of lofepramine was increased to 70 mg three times daily. […] Within 48 hours their concentration deteriorated and they were once again in trouble at work. A week later the medication was recommenced and they have now remained well for approximately 4 months. They are performing effectively at work and their parents are happy with the situation. A child had been on methylphenidate for 2 years which was prescribed for ADHD characterised by poor concentration and impulsive behaviour. They stopped taking the medication and deteriorated. When they attended the clinic they were commenced on lofepramine 70 mg twice daily. […] This has been sustained for 4 months.

For `CN(C)CCC=C1c2ccccc2CCc2ccccc21` [amitriptyline], the “effect on ECG interval” value (ECG interval) is given as “prolong the ECG interval”.
In the case of `CNCC[C@@H](Oc1ccccc1C)c1ccccc1` [atomoxetine], the “mean reduction of CAARS scores” value (ADHD [1]; first study, placebo 18.1%) is listed as 28.3%, the “mean reduction of CAARS scores” value (ADHD [1]; second study, placebo 19.6%) is listed as 30.1% and the “difference between active and placebo in reduction of CAARS scores” value (ADHD [2]) is listed as “about 10%”.
In the case of `CNCCCN1c2ccccc2CCc2ccccc21` [desipramine], the “diastolic blood pressure, heart rate and ECG conductance” value [3] is given as “asymptomatic and generally small increases”, the “patients with a significant response” value [4] is given as “around 70%” and the “fatalities per million prescriptions” value [5] is given as 200.9 per million prescriptions. For the same compound, the “effect on ECG interval” value (ECG interval) was “prolong the ECG interval”.
For `CN(C)CCCN1c2ccccc2CCc2ccccc21` [imipramine], the “time to begin to reduce hyperactivity” value (hyperactivity (ADHD)) is given as 3 to 10 days and the “effect on ECG interval” value (ECG interval) is given as “prolong the ECG interval”.
For `CN(CCCN1c2ccccc2CCc2ccccc21)CC(=O)c1ccc(Cl)cc1` [lofepramine], the cardiotoxicity [6] was “very low cardiotoxicity”, the “serotonin synthesis in the brain” value [7] was “up-regulate serotonin synthesis in the brain” and the “NA:5HT ratio relative to that of desipramine” value [8] was “about four”. For the same compound, the “NE:5-HT ratio compared with milnacipran” value [8] was “higher than that of milnacipran”, the sedation (Sedation) was “does not induce sedation” and the “CAARS scores versus placebo” value (ADHD [9]) was “significant benefit over placebo”. The “activity at the D2 receptor” value (dopamine D2 receptor) was “potent activity”, the “FibroFatigue Scale, CDR cognitive tests, HADS and CGI” value (Chronic Fatigue Syndrome) was “significant improvement on all scales” and the HPA activity [10] was “induces upregulation of HPA activity”. For the same compound, the behaviour (DSM-IV ADHD; 70 mg three times daily, sustained for 4 months) was “major improvement”, the behaviour (DSM-IV ADHD; 70 mg twice daily) was “No immediate improvement” and the side-effects (DSM-IV ADHD; patient report) was “no side-effects”. For the same compound, the “general behaviour and concentration” value (DSM-IV ADHD; 70 mg three times daily, sustained for 3 months) was “continued improvement”, the “general behaviour and concentration” value (DSM-IV ADHD; 70 mg twice daily, after 1 week) was “significant improvement” and the “fatalities per million prescriptions” value [5] was 1.3 per million prescriptions. The “effect on ECG interval” value (ECG interval) was “does not”.
In the case of `COc1ccc(C(CN(C)C)C2(O)CCCCC2)cc1` (stereo not drawn) [venlafaxine], the “fatalities per million prescriptions” value [5] is given as 13.2 per million prescriptions.

— patent publication US20080261955A1, “Use of Pharmaceutical Compositions of Lofepramine for the Treatment of Adhd, Cfs, Fm and Depression” (priority 2004, published 2008)
